{
  "source": "patent US9604988B2",
  "about": "“Agent for treating or inhibiting recurrence of acute myeloid leukemia” (RIKEN, priority 2012, dated 2017)",
  "key": {"[1]": {"target": "hERG (Homo sapiens, UniProt Q12809)", "sequence (Q12809 whole entry)": "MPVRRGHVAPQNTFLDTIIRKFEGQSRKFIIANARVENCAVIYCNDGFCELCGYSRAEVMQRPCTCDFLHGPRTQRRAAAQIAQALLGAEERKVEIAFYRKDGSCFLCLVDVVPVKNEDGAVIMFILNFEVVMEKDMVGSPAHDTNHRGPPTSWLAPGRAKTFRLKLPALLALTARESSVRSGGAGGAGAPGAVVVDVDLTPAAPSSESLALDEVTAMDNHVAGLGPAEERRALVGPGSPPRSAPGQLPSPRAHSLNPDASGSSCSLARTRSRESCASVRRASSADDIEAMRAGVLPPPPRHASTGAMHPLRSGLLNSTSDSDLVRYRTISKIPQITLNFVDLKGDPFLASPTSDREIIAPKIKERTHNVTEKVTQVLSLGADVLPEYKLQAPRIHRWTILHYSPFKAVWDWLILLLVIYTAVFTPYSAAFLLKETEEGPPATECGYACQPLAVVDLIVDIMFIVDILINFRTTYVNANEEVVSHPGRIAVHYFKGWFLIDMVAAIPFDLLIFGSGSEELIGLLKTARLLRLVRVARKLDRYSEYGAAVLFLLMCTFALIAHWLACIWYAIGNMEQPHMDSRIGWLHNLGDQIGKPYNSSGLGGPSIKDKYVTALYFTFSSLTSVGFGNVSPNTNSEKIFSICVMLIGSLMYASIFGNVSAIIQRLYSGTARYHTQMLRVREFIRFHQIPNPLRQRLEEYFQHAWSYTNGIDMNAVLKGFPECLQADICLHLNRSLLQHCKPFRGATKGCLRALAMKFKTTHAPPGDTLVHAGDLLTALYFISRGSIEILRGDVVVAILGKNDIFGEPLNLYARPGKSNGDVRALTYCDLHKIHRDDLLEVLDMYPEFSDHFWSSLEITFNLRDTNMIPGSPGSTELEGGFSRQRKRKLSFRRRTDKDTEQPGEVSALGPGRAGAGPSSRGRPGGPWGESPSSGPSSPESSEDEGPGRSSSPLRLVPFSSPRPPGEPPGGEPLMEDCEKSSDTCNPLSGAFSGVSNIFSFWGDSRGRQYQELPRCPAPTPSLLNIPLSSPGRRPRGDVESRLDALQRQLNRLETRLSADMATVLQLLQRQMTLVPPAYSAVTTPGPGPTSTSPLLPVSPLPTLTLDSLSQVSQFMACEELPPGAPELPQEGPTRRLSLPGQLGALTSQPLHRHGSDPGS", "assay": "hERG inhibition (automated patch-clamp)", "format": "cell-based"}, "[2]": {"target": "T1, FLT3-ITD (Homo sapiens, UniProt P36888, ITD)", "T1 sequence (P36888 27-993)": "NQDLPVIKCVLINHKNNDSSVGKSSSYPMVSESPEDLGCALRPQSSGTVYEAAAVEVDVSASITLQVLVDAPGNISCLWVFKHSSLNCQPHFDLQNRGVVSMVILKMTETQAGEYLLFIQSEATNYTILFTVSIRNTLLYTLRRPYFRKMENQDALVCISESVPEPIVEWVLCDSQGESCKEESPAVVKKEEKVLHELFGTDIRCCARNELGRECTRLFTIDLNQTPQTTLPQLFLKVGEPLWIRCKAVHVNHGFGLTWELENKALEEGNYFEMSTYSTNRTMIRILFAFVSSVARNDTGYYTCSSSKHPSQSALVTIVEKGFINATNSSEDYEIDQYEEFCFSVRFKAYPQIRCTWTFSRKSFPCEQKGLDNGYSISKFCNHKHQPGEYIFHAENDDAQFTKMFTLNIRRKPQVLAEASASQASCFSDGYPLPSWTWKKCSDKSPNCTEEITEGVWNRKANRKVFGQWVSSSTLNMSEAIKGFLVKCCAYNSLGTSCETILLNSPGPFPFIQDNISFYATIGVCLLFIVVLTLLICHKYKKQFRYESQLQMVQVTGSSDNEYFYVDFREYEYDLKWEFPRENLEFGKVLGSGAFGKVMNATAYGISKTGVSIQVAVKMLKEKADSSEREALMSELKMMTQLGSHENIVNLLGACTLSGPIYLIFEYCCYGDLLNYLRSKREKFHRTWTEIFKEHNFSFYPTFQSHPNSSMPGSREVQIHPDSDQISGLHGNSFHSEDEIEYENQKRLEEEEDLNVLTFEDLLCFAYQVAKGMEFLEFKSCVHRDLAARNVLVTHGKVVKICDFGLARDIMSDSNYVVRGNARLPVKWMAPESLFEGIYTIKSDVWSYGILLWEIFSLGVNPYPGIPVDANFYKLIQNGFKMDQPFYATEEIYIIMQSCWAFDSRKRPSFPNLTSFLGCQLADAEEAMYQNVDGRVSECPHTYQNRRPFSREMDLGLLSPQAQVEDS", "assay": "FLT3-ITD kinase inhibition", "format": "biochemical"}, "[3]": {"target": "HCK (Homo sapiens, UniProt P08631)", "sequence (P08631 whole entry)": "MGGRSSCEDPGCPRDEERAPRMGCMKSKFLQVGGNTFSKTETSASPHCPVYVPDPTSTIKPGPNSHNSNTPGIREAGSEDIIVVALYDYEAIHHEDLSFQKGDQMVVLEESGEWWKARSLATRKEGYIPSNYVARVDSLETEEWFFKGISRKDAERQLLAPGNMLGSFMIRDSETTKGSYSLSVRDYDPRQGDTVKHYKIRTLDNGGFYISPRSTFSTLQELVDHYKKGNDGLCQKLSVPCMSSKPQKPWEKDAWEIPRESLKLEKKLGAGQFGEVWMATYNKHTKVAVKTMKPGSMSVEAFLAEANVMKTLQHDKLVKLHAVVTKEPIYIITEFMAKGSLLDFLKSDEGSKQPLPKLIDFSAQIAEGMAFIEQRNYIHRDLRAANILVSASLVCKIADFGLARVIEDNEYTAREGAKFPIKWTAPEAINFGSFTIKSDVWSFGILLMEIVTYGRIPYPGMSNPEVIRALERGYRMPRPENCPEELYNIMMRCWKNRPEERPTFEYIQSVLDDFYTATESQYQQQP", "assay": "HCK kinase inhibition", "format": "biochemical"}},
  "note": "pIC50: −log10 of the molar value.",
  "data": [
    {"smiles": "CN1C2CCC1CN([C@H]1CC[C@H](n3nc(-c4ccc(NC(=O)c5cc6ccccc6n5C)cc4)c4c(N)ncnc43)CC1)C2", "note": "[Example 24, N-(4-(4-amino-1-((1r,4r)-4-(8-methyl-3,8-diazabicyclo[3.2.1]octan-3-yl)cyclohexyl)-1H-pyrazolo[3,4-d]pyrimidin-3-yl)phenyl)-1-methyl-1H-indole-2-carboxamide]", "values": [
      {"measurement": "inhibition at 10 µM", "setting": "[1]", "result": 64, "unit": "%"},
      {"measurement": "pIC50", "setting": "[2]", "result": 5.48},
      {"measurement": "pIC50", "setting": "[3]", "result": 8.01}
    ]},
    {"smiles": "Nc1ncnc2c1c(-c1ccc(Oc3ccccc3)cc1)cn2[C@H]1CC[C@H](NCc2ccncc2)CC1", "note": "[Example 44, 5-(4-phenoxyphenyl)-7-((trans)-4-((pyridin-4-ylmethyl)amino)cyclohexyl)-7H-pyrrolo[2,3-d]pyrimidin-4-amine]", "values": [
      {"measurement": "inhibition at 10 µM", "setting": "[1]", "result": 93, "unit": "%"},
      {"measurement": "pIC50", "setting": "[2]", "result": 7.82}
    ]},
    {"smiles": "CN1C2CCC1CN([C@H]1CC[C@H](n3nc(-c4ccc(NC(=O)c5ccccn5)cc4)c4c(N)ncnc43)CC1)C2", "note": "[Example 21, N-(4-(4-amino-1-((1r,4r)-4-(8-methyl-3,8-diazabicyclo[3.2.1]octan-3-yl)cyclohexyl)-1H-pyrazolo[3,4-d]pyrimidin-3-yl)phenyl)picolinamide]", "values": [
      {"measurement": "inhibition at 10 µM", "setting": "[1]", "result": 48, "unit": "%"},
      {"measurement": "pIC50", "setting": "[2]", "result": 5.93},
      {"measurement": "pIC50", "setting": "[3]", "result": 8.33}
    ]},
    {"smiles": "COc1cc(-c2cn([C@H]3CC[C@H](N4CCN(C)CC4)CC3)c3ncnc(N)c23)ccc1NC(=O)c1cc2ccccc2n1C", "note": "[Example 27, N-(4-(4-amino-7-((trans)-4-(4-methylpiperazin-1-yl)cyclohexyl)-7H-pyrrolo[2,3-d]pyrimidin-5-yl)-2-methoxyphenyl)-1-methyl-1H-indole-2-carboxamide]", "values": [
      {"measurement": "inhibition at 10 µM", "setting": "[1]", "result": 39.3, "unit": "%"},
      {"measurement": "pIC50", "setting": "[2]", "result": 6.22},
      {"measurement": "pIC50", "setting": "[3]", "result": 8.80}
    ]},
    {"smiles": "Cn1nccc1CN[C@H]1CC[C@H](n2cc(-c3ccc(Oc4ccccc4)cc3)c3c(N)ncnc32)CC1", "note": "[Example 50, 7-((trans)-4-(((1-Methyl-1H-pyrazol-5-yl)methyl)amino)cyclohexyl)-5-(4-phenoxyphenyl)-7H-pyrrolo[2,3-d]pyrimidin-4-amine]", "values": [
      {"measurement": "inhibition at 10 µM", "setting": "[1]", "result": 97, "unit": "%"},
      {"measurement": "pIC50", "setting": "[2]", "result": 7.41},
      {"measurement": "pIC50", "setting": "[3]", "result": 8.02}
    ]},
    {"smiles": "COc1cc(-c2nn([C@H]3CC[C@H](N4CCn5c(C)nnc5C4)CC3)c3ncnc(N)c23)ccc1NC(=O)c1cc2ccccc2n1C", "note": "[Example 29, N-(4-(4-amino-1-((trans)-4-(3-methyl-5,6-dihydro[1,2,4]triazolo[4,3-a]pyrazin-7(8H)-yl)cyclohexyl)-1H-pyrazolo[3,4-d]pyrimidin-3-yl)-2-methoxyphenyl)-1-methyl-1H-indole-2-carboxamide]", "values": [
      {"measurement": "inhibition at 10 µM", "setting": "[1]", "result": 17.1, "unit": "%"},
      {"measurement": "pIC50", "setting": "[2]", "result": 5.87},
      {"measurement": "pIC50", "setting": "[3]", "result": 8.74}
    ]},
    {"smiles": "CN1C2CCC1CN([C@H]1CC[C@@H](n3nc(-c4ccc(Oc5ccccc5)cc4)c4c(N)ncnc43)CC1)C2", "note": "[Example 52, 1-((1s,4s)-4-(8-Methyl-3,8-diazabicyclo[3.2.1]octan-3-yl)cyclohexyl)-3-(4-phenoxyphenyl)-1H-pyrazolo[3,4-d]pyrimidin-4-amine]", "values": [
      {"measurement": "inhibition at 10 µM", "setting": "[1]", "result": 99, "unit": "%"},
      {"measurement": "pIC50", "setting": "[2]", "result": 7.57},
      {"measurement": "pIC50", "setting": "[3]", "result": 7.84}
    ]},
    {"smiles": "CC(C)N1CCN([C@H]2CC[C@H](n3cc(-c4ccc(Oc5ccccc5)cc4)c4c(N)ncnc43)CC2)CC1", "note": "[Example 42, 7-((trans)-4-(4-Isopropylpiperazin-1-yl)cyclohexyl)-5-(4-phenoxyphenyl)-7H-pyrrolo[2,3-d]pyrimidin-4-amine]", "values": [
      {"measurement": "inhibition at 10 µM", "setting": "[1]", "result": 88, "unit": "%"},
      {"measurement": "pIC50", "setting": "[2]", "result": 7.66}
    ]},
    {"smiles": "Nc1ncnc2c1c(-c1ccc(Oc3ccccc3)cc1)nn2[C@H]1CC[C@H](NC(=O)c2cccnc2)CC1", "note": "[Example 22, N-((trans)-4-(4-amino-3-(4-phenoxyphenyl)-1H-pyrazolo[3,4-d]pyrimidin-1-yl)cyclohexyl)nicotinamide]", "values": [
      {"measurement": "inhibition at 10 µM", "setting": "[1]", "result": 50, "unit": "%"},
      {"measurement": "pIC50", "setting": "[2]", "result": 6.72},
      {"measurement": "pIC50", "setting": "[3]", "result": 7.70}
    ]},
    {"smiles": "Nc1ncnc2c1c(-c1ccc(Oc3ccccc3)cc1)cn2[C@H]1CC[C@@H](NCc2ccccn2)CC1", "note": "[Example 47, 5-(4-Phenoxyphenyl)-7-((cis)-4-((pyridin-2-ylmethyl)amino)cyclohexyl)-7H-pyrrolo[2,3-d]pyrimidin-4-amine]", "values": [
      {"measurement": "inhibition at 10 µM", "setting": "[1]", "result": 99, "unit": "%"},
      {"measurement": "pIC50", "setting": "[2]", "result": 7.92},
      {"measurement": "pIC50", "setting": "[3]", "result": 8.19}
    ]},
    {"smiles": "CN1CCN([C@H]2CC[C@H](n3nc(-c4ccc(NC(=O)c5cc6ccccc6n5C)cc4)c4c(N)ncnc43)CC2)CC1", "note": "[Example 28, N-(4-(4-amino-1-((trans)-4-(4-methylpiperazin-1-yl)cyclohexyl)-1H-pyrazolo[3,4-d]pyrimidin-3-yl)phenyl)-1-methyl-1H-indole-2-carboxamide]", "values": [
      {"measurement": "pIC50", "setting": "[2]", "result": 5.97},
      {"measurement": "pIC50", "setting": "[3]", "result": 8.80}
    ]},
    {"smiles": "CN1CCN([C@H]2CC[C@H](n3cc(-c4ccc(NC(=O)c5cc6ccccc6n5C)cc4)c4c(N)ncnc43)CC2)CC1", "note": "[Example 17, N-(4-(4-amino-7-((trans)-4-(4-methylpiperazin-1-yl)cyclohexyl)-7H-pyrrolo[2,3-d]pyrimidin-5-yl)phenyl)-1-methyl-1H-indole-2-carboxamide]", "values": [
      {"measurement": "pIC50", "setting": "[2]", "result": 6.59},
      {"measurement": "pIC50", "setting": "[3]", "result": 8.59}
    ]},
    {"smiles": "COc1cc(-c2cn([C@H]3CC[C@H](N4CCn5c(C)cnc5C4)CC3)c3ncnc(N)c23)ccc1NC(=O)c1cc2ccccc2n1C", "note": "[Example 39, N-(4-(4-amino-7-((trans)-4-(3-methyl-5,6-dihydroimidazo[1,2-a]pyrazin-7(8H)-yl)cyclohexyl)-7H-pyrrolo[2,3-d]pyrimidin-5-yl)-2-methoxyphenyl)-1-methyl-1H-indole-2-carboxamide]", "values": [
      {"measurement": "pIC50", "setting": "[2]", "result": 5.34},
      {"measurement": "pIC50", "setting": "[3]", "result": 8.40}
    ]},
    {"smiles": "Nc1ncnc2c1c(-c1ccc(Oc3ccccc3)cc1)cn2[C@H]1CC[C@H](NC(=O)c2ccccn2)CC1", "note": "[Example 18, N-((trans)-4-(4-amino-5-(4-phenoxyphenyl)-7H-pyrrolo[2,3-d]pyrimidin-7-yl)cyclohexyl)picolinamide]", "values": [
      {"measurement": "pIC50", "setting": "[2]", "result": 6.37},
      {"measurement": "pIC50", "setting": "[3]", "result": 8.34}
    ]},
    {"smiles": "Nc1ncnc2c1c(-c1ccc(Oc3ccccc3)cc1)cn2[C@H]1CC[C@@H](N[C@H]2CCNC2=O)CC1", "note": "[Example 53, (S)-3-(((cis)-4-(4-amino-5-(4-phenoxyphenyl)-7H-pyrrolo[2,3-d]pyrimidin-7-yl)cyclohexyl)amino)pyrrolidin-2-one]", "values": [
      {"measurement": "inhibition at 10 µM", "setting": "[1]", "result": 97, "unit": "%"},
      {"measurement": "pIC50", "setting": "[2]", "result": 7.52}
    ]},
    {"smiles": "Cn1nccc1CN[C@H]1CC[C@@H](n2cc(-c3ccc(Oc4ccccc4)cc3)c3c(N)ncnc32)CC1", "note": "[Example 49, 7-((cis)-4-(((1-Methyl-1H-pyrazol-5-yl)methyl)amino)cyclohexyl)-5-(4-phenoxyphenyl)-7H-pyrrolo[2,3-d]pyrimidin-4-amine]", "values": [
      {"measurement": "inhibition at 10 µM", "setting": "[1]", "result": 99, "unit": "%"},
      {"measurement": "pIC50", "setting": "[2]", "result": 7.64},
      {"measurement": "pIC50", "setting": "[3]", "result": 9.28}
    ]},
    {"smiles": "Nc1ncnc2c1c(-c1ccc(Oc3ccccc3)cc1)cn2[C@H]1CC[C@H](N2CCn3c(nnc3C(F)(F)F)C2)CC1", "note": "[Example 58, 5-(4-Phenoxyphenyl)-7-((trans)-4-(3-(trifluoromethyl)-5,6-dihydro[1,2,4]triazolo[4,3-a]pyrazin-7(8H)-yl)cyclohexyl)-7H-pyrrolo[2,3-d]pyrimidin-4-amine]", "values": [
      {"measurement": "pIC50", "setting": "[2]", "result": 7.37},
      {"measurement": "pIC50", "setting": "[3]", "result": 7.64}
    ]},
    {"smiles": "Nc1ncnc2c1c(-c1ccc(Oc3ccccc3)cc1)cn2[C@H]1CC[C@H](NC(=O)c2cccnc2)CC1", "note": "[Example 19, N-((trans)-4-(4-amino-5-(4-phenoxyphenyl)-7H-pyrrolo[2,3-d]pyrimidin-7-yl)cyclohexyl)nicotinamide]", "values": [
      {"measurement": "pIC50", "setting": "[2]", "result": 6.97},
      {"measurement": "pIC50", "setting": "[3]", "result": 7.93}
    ]},
    {"smiles": "Nc1ncnc2c1c(-c1ccc(Oc3ccccc3)cc1)cn2[C@H]1CC[C@H](N2CCN(CCO)CC2)CC1", "note": "[Example 41, 2-(4-((trans)-4-(4-Amino-5-(4-phenoxyphenyl)-7H-pyrrolo[2,3-d]pyrimidin-7-yl)cyclohexyl)piperazin-1-yl)ethan-1-ol]", "values": [
      {"measurement": "inhibition at 10 µM", "setting": "[1]", "result": 93, "unit": "%"},
      {"measurement": "pIC50", "setting": "[2]", "result": 7.68}
    ]}
  ]
}
